Assay results taken from paper PMC5641094, “A peptide antagonist of Prep1-p160 interaction improves ceramide-induced insulin resistance in skeletal muscle cells” (Oncotarget, 2017).
Read-outs that look alike come from different tables or passages of the source.

Legend:
L6 cells [1] = assay: 2-DG uptake in L6 cells; format: cell-based, rat; conditions: for effect on insulin-stimulated glucose uptake (2-DG): insulin 100nM, C2cer 10μM, with or without Prep1(54-72)
Method: Figure 6 Effect of Prep1(54-72) peptide on glycogen content and 2-DG uptake L6 control and Prep1 overexpressing cells were stimulated with Insulin (100nM) and/or C2cer (10μM) and incubated with Prep1(54-72). (A) Glycogen content and (B) 2-DG uptake were measured as described in methods. Bars represent the mean ± SD of three independent experiments. Asterisks denote statistically significant differences (*p<0.05; **p<0.01; ***p<0.001).
Glycogen was isolated from L6 cells homogenized in 0.1% SDS, saturated with Na2SO4 for 30 minutes at 37°C, followed by ethanol (EtOH) precipitation. Glycogen content was determined as previously described. 2-DG uptake by the L6 cells was measured as previously reported.

L6 cells [2] = assay: Cell toxicity in L6 cells; format: cell-based, rat; conditions: highest concentration 100μM, data not shown
[3] = target: T1, p160_20-160/Prep1_45-155 binding (Homo sapiens, UniProt Q9BQG0); assay: ELISA-like competition of p160_20-160/Prep1_45-155 binding
T1 construct: pre-incubating the His6-tagged-p160_20-160 at 0.25μM with peptides; made in house
T1 sequence (Q9BQG0 20-160): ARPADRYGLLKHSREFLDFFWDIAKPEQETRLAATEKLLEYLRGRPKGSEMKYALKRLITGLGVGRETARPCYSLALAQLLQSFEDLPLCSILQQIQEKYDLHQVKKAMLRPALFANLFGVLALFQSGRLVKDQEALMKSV
From the text: To address the significance of the association between Prep1 and p160 mediated by C2cer, we generated a synthetic inhibitor of the Prep1/p160 interaction. […] The synthetic peptide covering such stretch of residues was therefore chosen to generate a potential inhibitor. […] Thus, we designed and chemically synthesized a peptide spanning residues 59-72, hereafter Prep1(59-72), which comprises the predicted α-helix and a short loop at the N-terminus (Supplementary Figure 2A, upper panel). We also designed and prepared an additional peptide with a slightly longer N-terminal end, named Prep1(54-72) (Supplementary Figure 2A, lower panel), to increase the probability of obtaining a molecule with helical features. […] In order to test the affinity of Prep1 synthetic peptides to p160 protein, ELISA-like experiments were developed where N-terminally biotinylated peptide variants were added to p160_20-160 – coated 96-well plates. As shown in Figure 3A either variants bound p160_20-160 domain in a dose-dependent and saturable manner. […]
Figure 3 Design and in vitro effects of Prep1(54-72) peptide on Prep1/p160 association (A) Binding curves of Prep1(59-72) and Prep1(54-72) peptides to p160_20-160 by ELISA-like assays. […] (C) L6 cells were incubated with increasing concentrations of the fluorescein-conjugated peptide (FITC-Prep1(54-72)) and peptide uptake was detected by FACS analysis of fluorescein-labeled cells. […] Protein lysates were immunoprecipitated with Prep1 antibodies and analyzed by Western blot using antibodies for p160 or for Prep1. […] The blots were detected by ECL and autoradiography. […]
ELISA experiments were performed using an integrated platform for High-Throughput Screening (Hamilton Robotics, Bonaduz, CH) comprising a fully equipped Starlet 8 channel liquid handler, a robotic arm, a washer and a multi-wavelength plate reader. […] In particular, several concentrations of biotinylated peptides at several concentrations were added to a plate coated with p160_20-160 (0.1μM) and binding was detected with streptavidin-HRP. […] The binding was detected by anti-His HRP-conjugated antibody. […]

Akt phosphorylation = assay: Akt phosphorylation, Western blot; format: cell-based, rat; conditions: L6 cells with C2cer 10μM or Prep1 transfection, insulin 100nM
Method: Figure 5 Effect of Prep1(54-72) peptide on Akt phosphorylation and PGC-1α and GLUT4 protein levels (A-B) L6 control and Prep1 overexpressing cells were stimulated with Insulin (100nM) and/or C2cer (10μM) and incubated with Prep1(54-72). Protein lysates were analyzed by Western blot using antibodies for pAkt, Akt and for the beta-actin, as a loading control. (C) PGC-1α and GLUT4 protein levels were measured by using specific antibodies for these proteins and beta-actin antibody was used as loading control. Blots were detected by ECL and autoradiography. The autoradiographs are representative of four independent experiments. Asterisks denote statistically significant differences (*p<0.05; **p<0.01; ***p<0.001).
Total cell lysates were obtained and separated by SDS-PAGE. Briefly, cells were solubilized with lysis buffer containing 50mM HEPES, 150mM NaCl, 10mM EDTA, 10mM Na4P2O7, 2mM sodium orthovanadate, 50mM NaF, 1mM phenylmethylsulfonyl fluoride, 10μg/ml aprotinin, 10μg/ml leupeptin, pH 7.4, and 1% (v/v) Triton X-100. Lysates were clarified by centrifugation at 12,000g for 20 minutes at 4°C. The protein concentrations in the cell lysates were measured using a Bio-Rad DC (detergent compatible) assay. Immunoprecipitation and Western blot analysis have been performed as previously described.

For `CCCCCCCCCCCCC/C=C/[C@@H](O)[C@H](CO)NC(C)=O` [C2cer, D-erythro-Sphingosine, N-Acetyl-, reference compound], the “reduction of insulin-stimulated glucose uptake” value (L6 cells [1]; C2cer exposure (abstract)) was 2.1 fold, the “effect on insulin-stimulated glucose uptake (2-DG)” value (L6 cells [1]) was “negatively modulated” and the “toxicity for the cells” value (L6 cells [2]) was “slightly toxic”.
“Ac-KQAIYRHPLFPLLALLFEK-NH2 [Prep1(54-72)]” was tested, and the “effect on insulin-stimulated glucose uptake (2-DG)” value (L6 cells [1]) was “recovered the insulin response”, the IC50 ([3]; His6-p160_20-160 0.25μM pre-incubated with peptide 0.001-10μM, plate coated with Prep1_45-155 (0.10μM), anti-His HRP, average of three experiments, read-out: IC50, inhibition of p160_20-160/Prep1_45-155 binding) was 200 nM and the IC50 ([3]; as restated in the discussion, read-out: IC50, potency in vitro as complex inhibitor) was ~200 nM. For the same molecule, the “effect on insulin stimulated Akt phosphorylation” value (Akt phosphorylation) was “rescued insulin effect”.
